Reference: a flash point compilation (Sun et al. 2020)

In order of falling flash point:
1. CCCCCCCCCCCCCCCCC [heptadecane]  148 °C
2. CCCCCCCCCCCc1ccccc1 [undecylbenzene]  144 °C
3. CCCCCCCCCc1ccccc1 [nonylbenzene]  117 °C
4. CCCCCCCCCCCOC(C)=O [undecylacetate]  111 °C
5. CCCCCCCCc1ccccc1 [octylbenzene]  107 °C
6. CC/C=C/C(=O)O [trans-2-pentenoicacid]  102 °C
7. c1ccc2ncccc2c1 [quinoline]  101 °C
8. CCCOC(=O)c1ccccc1 [propylbenzoate]  98 °C
9. CCCCCC#CC(=O)OC [methyl2-octynoate]  89 °C
10. O=[N+]([O-])c1ccccc1 [nitrobenzene]  88 °C
11. Cc1ccccc1N [o-toluidine]  85 °C
12. CCCCC(=O)O [pentanoicacid]  85 °C
13. CCCCCCCCOC(C)=O [octylacetate]  82 °C
14. COC(=O)c1ccccc1 [methylbenzoate]  80 °C
15. CC(=O)CC(=O)OC(C)(C)C [tert-butylacetoacetate]  76 °C
16. CCCCN(CCCC)CCCC [tributylamine]  71 °C
17. CCCCCCCCOC=O [octylformate]  69 °C
18. CCCCCc1ccccc1 [pentylbenzene]  66 °C
19. CCCCCCCCC=O [nonanal]  63 °C
20. CCCCCC1CCCCC1 [pentylcyclohexane]  63 °C
21. COC(=O)C1CCCCC1 [methylcyclohexanecarboxylate]  60 °C
22. CCCCCCCCN [octylamine]  60 °C
23. CCC(=O)O [propionicacid]  58 °C
24. CCc1ccc(CC)cc1 [p-diethylbenzene]  55 °C
25. CCCCCCC(=O)OC [methylheptanoate]  52 °C
26. CCc1cccc(CC)c1 [m-diethylbenzene]  51 °C
27. CCCCCCCC=O [octanal]  51 °C
28. Cc1ccccc1C(C)C [o-isopropyltoluene]  50 °C
29. Cc1cccc(C(C)C)c1 [m-isopropyltoluene]  47 °C
30. Cc1ccc(C(C)C)cc1 [p-isopropyltoluene]  47 °C
31. CC(C)(C)C1CCCCC1 [tert-butylcyclohexane]  40 °C
32. CCc1ccccc1C [o-ethyltoluene]  39 °C
33. COCCO [2-methoxyethanol]  38 °C
34. CCc1cccc(C)c1 [m-ethyltoluene]  38 °C
35. CC(C)OCC1CO1 (stereo not drawn) [isopropylglycidylether]  33 °C
36. c1cc[nH]c1 [pyrrole]  33 °C
37. CCCC1CCCCC1 [propylcyclohexane]  31 °C
38. Cc1ccccc1C [o-xylene]  30 °C
39. CCCc1ccccc1 [propylbenzene]  30 °C
40. CCCCCOC=O [pentylformate]  26 °C
41. CCC(C)(C)OC(C)=O [tert-pentylacetate]  25 °C
42. C=CC(=O)OCCC [propylacrylate]  24 °C
43. CCCCC(=O)OC [methylpentanoate]  22 °C
44. C1CCSCC1 [thiacyclohexane]  21 °C
45. CCC(=O)OC(C)(C)C [tert-butylpropanoate]  20 °C
46. COC(=O)C1CC1 [methylcyclopropanecarboxylate]  18 °C
47. CCCC1CCCC1 [propylcyclopentane]  16 °C
48. CCC(C)OC(C)=O (stereo not drawn) [sec-butylacetate]  16 °C
49. C1CCSC1 [thiacyclopentane]  13 °C
50. C=C(C)C(=O)OC [methylmethacrylate]  10 °C
51. CCCOC(C)=O [propylacetate]  10 °C
52. C/C=C/C=O [trans-2-butenal]  9 °C
53. CC/C=C/CCCC [trans-3-octene]  9 °C
54. CCC#N [propionitrile]  6 °C
55. CCCCCN [pentylamine]  4 °C
56. COCCOC [1,2-dimethoxyethane]  -2 °C
57. CCC(=O)OC [methylpropanoate]  -2 °C
58. CCCOC=O [propylformate]  -3 °C
59. C/C=C/CCCC [trans-2-heptene]  -6 °C
60. c1ccsc1 [thiophene]  -9 °C
61. CCN(CC)CC [triethylamine]  -9 °C
62. C/C=C/CCC [trans-2-hexene]  -25 °C
63. CC/C=C/CC [trans-3-hexene]  -25 °C
64. C/C=C/C(C)C [trans-4-methyl-2-pentene]  -27 °C
65. COC(C)(C)C [tert-butylmethylether]  -28 °C
66. CCCN [propylamine]  -30 °C
67. CC1CO1 (stereo not drawn) [propyleneoxide]  -37 °C
68. CCCCC [pentane]  -40 °C
69. COC(C)C [isopropylmethylether]  -47 °C

Remark: another data set of the same source

In order of rising flash point:
1. C=C=C [1,2-propadiene]  -101 °C
2. C=CC(=C)C [2-methyl-1,3-butadiene]  -48 °C
3. C=C(C)CCC [2-methyl-1-pentene]  -26 °C
4. C1=COCC1 [2,3-dihydrofuran]  -24 °C
5. CCC=C(C)C [2-methyl-2-pentene]  -23 °C
6. C=C(C)C(=C)C [2,3-dimethyl-1,3-butadiene]  -22 °C
7. CCCS [1-propanethiol]  -21 °C
8. CC=CCCC [2-hexene]  -21 °C
9. C=C(C)C(C)C [2,3-dimethyl-1-butene]  -18 °C
10. C=C(C)C=O [2-methyl-2-propenal]  -15 °C
11. CCC(C)=O [2-butanone]  -9 °C
12. CCC(C)C(C)C (stereo not drawn) [2,3-dimethylpentane]  -6 °C
13. CC(Cl)(Cl)Cl [1,1,1-trichloroethane]  -1 °C
14. CC(C)Br [2-bromopropane]  1 °C
15. CCC1(C)CCCC1 [1-ethyl-1-methylcyclopentane]  6 °C
16. CC(=O)C(C)=O [2,3-butanedione]  6 °C
17. CCCCC=C(C)C [2-methyl-2-heptene]  8 °C
18. CCCC(C)S (stereo not drawn) [2-pentanethiol]  9 °C
19. C=C(C)CCCCC [2-methyl-1-heptene]  10 °C
20. CC=CCCCCC [2-octene]  14 °C
21. CCN1CCCCC1 [1-ethylpiperidine]  18 °C
22. CCC(C)CS (stereo not drawn) [2-methyl-1-butanethiol]  19 °C
23. C1=CCC=C1 [1,3-cyclopentadiene]  25 °C
24. CC(C)CO [2-methyl-1-propanol]  27 °C
25. ClCC(Cl)Cl [1,1,2-trichloroethane]  32 °C
26. CCCCI [1-iodobutane]  33 °C
27. C=C(C)CO [2-methyl-2-propen-1-ol]  33 °C
28. NCCN [1,2-ethanediamine]  34 °C
29. CC(C)(C)CO [2,2-dimethyl-1-propanol]  36 °C
30. Cc1ccnc(C)c1 [2,4-dimethylpyridine]  37 °C
31. CC1=CC2C(CC1)C2(C)C (stereo not drawn) [2-carene]  38 °C
32. CCCCCCCS [1-heptanethiol]  41 °C
33. CCCCCI [1-iodopentane]  43 °C
34. Cc1ccccc1Cl [2-chlorotoluene]  43 °C
35. Cc1ccc(C)c(C)c1 [1,2,4-trimethylbenzene]  44 °C
36. CCC(O)C(C)C (stereo not drawn) [2-methyl-3-pentanol]  46 °C
37. CCCCC(CC)CN (stereo not drawn) [2-ethyl-1-hexanamine]  50 °C
38. CC(Cl)CO (stereo not drawn) [2-chloro-1-propanol]  52 °C
39. CCc1ccc(CC)cc1 [1,4-diethylbenzene]  56 °C
40. CCCCCCCBr [1-bromoheptane]  60 °C
41. CCCCCCCO [1-heptanol]  71 °C
42. CCCCOCCOC(C)=O [2-butoxyethyl acetate]  71 °C
43. Cc1cccc(C)c1O [2,6-dimethylphenol]  73 °C
44. OCCS [2-mercaptoethanol]  73 °C
45. c1ccc2c(c1)CCCC2 [1,2,3,4-tetrahydronaphthalene]  77 °C
46. CC(O)CN (stereo not drawn) [1-amino-2-propanol]  77 °C
47. CCCCC(CC)CO (stereo not drawn) [2-ethyl-1-hexanol]  77 °C
48. CCCCCCCCBr [1-bromooctane]  78 °C
49. CC(=O)CCC(C)=O [2,5-hexanedione]  79 °C
50. Cc1cccc(I)c1 [1-iodo-3-methylbenzene]  82 °C
51. O=C1CCCCC1=O [1,2-cyclohexanedione]  84 °C
52. CCCCCCCCCCN [1-decanamine]  86 °C
53. CCC(CC)C(=O)O [2-ethylbutyric acid]  87 °C
54. CCCC(=O)c1ccccc1 [1-phenyl-1-butanone]  88 °C
55. OCC(Cl)CCl (stereo not drawn) [2,3-dichloro-1-propanol]  93 °C
56. Cc1ccc(O)c(C)c1 [2,4-dimethylphenol]  94 °C
57. Cc1ccc(C)c(O)c1 [2,5-dimethylphenol]  95 °C
58. CCCCCCCCCO [1-nonanol]  98 °C
59. OCCCCCCO [1,6-hexanediol]  101 °C
60. OCCc1ccccc1 [2-phenylethanol]  102 °C

Remark: another data set of the same source

In order of rising flash point:
1. CCCCC [pentane]  -49.00 °C
2. COCCOC [1,2-dimethoxyethane]  0.00 °C
3. COCCO [2-methoxyethanol]  42.00 °C
4. CCCCCCCCCCCCCCCCC [heptadecane]  149.00 °C
